Experimental data taken from paper PMC5590105 (Chemical communications (Cambridge, England), 2017).

Biological target: T1, heparanase (Homo sapiens, UniProt Q9Y251)
T1 sequence (Q9Y251 158-543 limits assumed): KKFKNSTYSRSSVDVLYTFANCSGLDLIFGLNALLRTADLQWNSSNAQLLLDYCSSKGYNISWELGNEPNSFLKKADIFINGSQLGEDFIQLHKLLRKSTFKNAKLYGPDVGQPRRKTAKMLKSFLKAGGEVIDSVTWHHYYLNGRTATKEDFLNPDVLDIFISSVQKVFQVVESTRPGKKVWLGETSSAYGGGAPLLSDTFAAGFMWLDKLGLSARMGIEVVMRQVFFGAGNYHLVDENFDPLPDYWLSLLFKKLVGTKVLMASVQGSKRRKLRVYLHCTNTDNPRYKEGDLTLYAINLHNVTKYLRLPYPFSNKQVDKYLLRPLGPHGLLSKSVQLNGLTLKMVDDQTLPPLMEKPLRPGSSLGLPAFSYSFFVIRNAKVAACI
T1 sequence (Q9Y251 36-109 limits assumed): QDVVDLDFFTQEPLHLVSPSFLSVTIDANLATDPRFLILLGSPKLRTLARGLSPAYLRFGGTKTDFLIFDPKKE
Experiment: colorimetric WST-1 assay of cleavage by heparanase
Format: biochemical
Conditions: WST-1 colorimetric assay, over 21 h

Structure (SMILES): CO[C@H]1O[C@H](COS(=O)(=O)O)[C@@H](O[C@@H]2O[C@@H](C(=O)O)[C@@H](O[C@H]3O[C@H](COS(=O)(=O)O)[C@@H](O[C@@H]4O[C@H](C(=O)O)[C@@H](O[C@H]5O[C@H](COS(=O)(=O)O)[C@@H](O)[C@H](O)[C@H]5NS(=O)(=O)O)[C@H](O)[C@H]4O)[C@H](OS(=O)(=O)O)[C@H]3NS(=O)(=O)O)[C@H](O)[C@H]2OS(=O)(=O)O)[C@H](O)[C@H]1NS(=O)(=O)O [Fondaparinux]
- hydrolysis by heparanase: readily cleaved by heparanase
